In article PMC5814047, “Peptidic inhibitors of insulin-degrading enzyme with potential for dermatological applications discovered via phage display” (PLoS ONE, 2018):
Several values for one entry are separate records, joined by “and”; a condition that tells them apart may be missing. Equal entries are not always repeated. Blank lines part the entries; values can stand above or below the substance they belong to. Ends that are not written are not given here.

Columns and labels:
IDE [1] = molecular target: T1, IDE (Homo sapiens, UniProt P14735); assay: biochemical; settings: for Percent activity at 500 uM, Mean: N 4; for IC50: dose-response, FRET1; for IC50 <500 uM?: initial test at 500 uM; for remaining activity at 500 µM: individual replicates, read-out: Percent activity at 500 uM, Replicate 1-4
T1 construct: made in house; host or cells: bacteria
T1 sequence (P14735 1-1019): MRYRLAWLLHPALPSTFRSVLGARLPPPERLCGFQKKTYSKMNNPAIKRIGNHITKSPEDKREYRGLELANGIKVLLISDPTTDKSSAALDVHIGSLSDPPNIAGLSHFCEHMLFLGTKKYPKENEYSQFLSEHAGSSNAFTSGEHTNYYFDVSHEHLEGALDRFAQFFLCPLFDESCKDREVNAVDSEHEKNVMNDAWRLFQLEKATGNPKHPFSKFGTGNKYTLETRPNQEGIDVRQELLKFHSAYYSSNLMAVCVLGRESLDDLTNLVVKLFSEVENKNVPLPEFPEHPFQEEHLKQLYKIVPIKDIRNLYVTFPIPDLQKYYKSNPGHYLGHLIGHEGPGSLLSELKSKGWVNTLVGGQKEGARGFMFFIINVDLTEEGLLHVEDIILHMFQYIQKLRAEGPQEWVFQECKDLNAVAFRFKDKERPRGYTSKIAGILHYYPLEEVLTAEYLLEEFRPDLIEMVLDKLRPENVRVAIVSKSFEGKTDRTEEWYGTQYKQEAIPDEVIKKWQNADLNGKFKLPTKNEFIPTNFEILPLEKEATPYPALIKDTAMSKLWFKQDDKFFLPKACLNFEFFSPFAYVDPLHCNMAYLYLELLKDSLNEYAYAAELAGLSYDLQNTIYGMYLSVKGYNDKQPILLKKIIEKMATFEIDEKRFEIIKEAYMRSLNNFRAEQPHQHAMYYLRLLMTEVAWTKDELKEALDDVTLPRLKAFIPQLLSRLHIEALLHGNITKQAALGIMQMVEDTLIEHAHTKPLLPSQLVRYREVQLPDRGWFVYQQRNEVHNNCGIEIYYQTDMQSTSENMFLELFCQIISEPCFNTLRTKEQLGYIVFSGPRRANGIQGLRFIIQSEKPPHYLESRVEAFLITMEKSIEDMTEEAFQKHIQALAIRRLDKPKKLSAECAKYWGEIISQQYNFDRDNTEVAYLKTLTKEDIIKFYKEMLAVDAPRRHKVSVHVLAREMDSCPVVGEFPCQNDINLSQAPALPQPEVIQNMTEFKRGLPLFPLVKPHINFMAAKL
Procedure: The six selected peptide sequences (C7C-1, C7C-2, 12–1, 12–2, 12–3 and 12–4) were synthesized, together with a variety of modifications, yielding a total of 25 peptides (Table 1). […] Other modifications included N-terminal acetylation and C-terminal amidation, included to mimic the charge state of the peptides when incorporated in the phage coat protein (Table 1).
(§1) IDE activity was quantified by monitoring the degradation of Mca-[…](Dnp) (FRET1, 5 μM), fluoresceinated and biotinylated amyloid ß-protein (FAßB; 500 nM) or recombinant human insulin (50 nM) in PBS supplemented with 0.05% BSA. […] In vitro activity assays incorporated recombinant human IDE (1 nM) purified from bacteria. For quantitation of insulin degradation in primary murine skin fibroblasts, cells (1 x 10^5/well) were plated in 96-well plates and maintained in DMEM supplemented with 10% fetal bovine serum (FBS), 2mM glutamine, penicillin and streptomycin. After addition of insulin (10 nM or 100 nM), samples of conditioned medium were removed daily and quickly frozen, then insulin levels were quantified in parallel by ELISA according to manufacturer’s recommendations (Crystal Chem, Downers Grove, IL, USA). Assessment of the activity of P12-3A against a variety of matrix-metalloproteases was conducted using the Matrix Metalloproteinase (MMP) Inhibitor Profiling Kit, Fluorometric RED (Enzo Life Sciences, Inc., Farmingdale, NY, USA) according to manufacturer’s recommendations using the broad-spectrum MMP inhibitor, NNGH, as a positive control.

IDE [2] = molecular target: T1, IDE; assay: biochemical; settings: for Ki: substrate recombinant human insulin 50 nM, Ki from IC50 with the Cheng-Prusoff equation
From the text: The six selected peptide sequences (C7C-1, C7C-2, 12–1, 12–2, 12–3 and 12–4) were synthesized, together with a variety of modifications, yielding a total of 25 peptides (Table 1). For the 12-mer peptides, we synthesized variants of the parent peptides truncated at one or both termini, to test whether the entire sequence was necessary or not, in the hope that shorter, and thus less expensive, sequences might be effective. Other modifications included N-terminal acetylation and C-terminal amidation, included to mimic the charge state of the peptides when incorporated in the phage coat protein (Table 1). To assess the extent to which these peptide sequences inhibit IDE, we quantified their potency in protease activity assays using recombinant human IDE and two different substrates: FRET1, a fluorogenic peptide, and recombinant human insulin.
IDE activity was quantified by monitoring the degradation of Mca-[…](Dnp) (FRET1, 5 μM), fluoresceinated and biotinylated amyloid ß-protein (FAßB; 500 nM) or recombinant human insulin (50 nM) in PBS supplemented with 0.05% BSA. FRET1 degradation was measured by changes in fluorescence (λex = 340 nm, λem = 420 nm); FAßB degradation was monitored by fluorescence polarization (λex = 488 nm, λem = 525 nm), as described; and insulin degradation was quantified by ELISA. In vitro activity assays incorporated recombinant human IDE (1 nM) purified from bacteria. For quantitation of insulin degradation in primary murine skin fibroblasts, cells (1 x 10^5/well) were plated in 96-well plates and maintained in DMEM supplemented with 10% fetal bovine serum (FBS), 2mM glutamine, penicillin and streptomycin. After addition of insulin (10 nM or 100 nM), samples of conditioned medium were removed daily and quickly frozen, then insulin levels were quantified in parallel by ELISA according to manufacturer’s recommendations (Crystal Chem, Downers Grove, IL, USA). Assessment of the activity of P12-3A against a variety of matrix-metalloproteases was conducted using the Matrix Metalloproteinase (MMP) Inhibitor Profiling Kit, Fluorometric RED (Enzo Life Sciences, Inc., Farmingdale, NY, USA) according to manufacturer’s recommendations using the broad-spectrum MMP inhibitor, NNGH, as a positive control.

IDE [3] = molecular target: T1, IDE; assay: Vulnerability of peptides to degradation by IDE: 0 vs 4 h pre-incubation, then FRET1 assay; type: biochemical; settings: for Percent Activity (normalized initial velocity of FRET1 hydrolysis) / remaining activity at 0.12207 µM / remaining activity at 0.488281 µM / remaining activity at 1.95312 µM / remaining activity at 7.8125 µM / remaining activity at 31.25 µM / remaining activity at 125 µM / remaining activity at 500 µM: relative to DMSO-only controls; for Ki: Cheng-Prusoff from IC50, FRET1 KM 10 uM, substrate 5 uM; for remaining activity at 0.12207 µM / remaining activity at 0.488281 µM / remaining activity at 1.95312 µM / remaining activity at 7.8125 µM / remaining activity at 31.25 µM / remaining activity at 125 µM / remaining activity at 500 µM: 4 h, read-out: Percent Activity (normalized initial velocity of FRET1 hydrolysis); for IC50: FRET1 assay
Procedure: as §1

[4] = initial test, percent of initial velocity relative to DMSO-only controls
[5] = peptide at 10 uM, insulin 100 nM, normalized to DMSO-only and no-enzyme controls
[6] = 4-hr incubation, Cmpd 0.12207 uM, individual runs
[7] = 4-hr incubation, Cmpd 0.488281 uM, individual runs
[8] = 4-hr incubation, Cmpd 1.95312 uM, individual runs
[9] = 4-hr incubation, Cmpd 7.8125 uM, individual runs
[10] = 4-hr incubation, Cmpd 31.25 uM, individual runs
[11] = 4-hr incubation, Cmpd 125 uM, individual runs
[12] = 4-hr incubation, Cmpd 500 uM, individual runs
[13] = substrate FRET1 5 μM, Ki from IC50 with the Cheng-Prusoff equation, read-out: Ki FRET1
[14] = 4-hr incubation, individual replicates, read-out: IC50s
[15] = 4-hr incubation, mean of 2 replicates, read-out: IC50s, Mean

Percent activity at 500 uM, Mean (IDE [1]; [4]): 3.0%
Percent activity at 500 uM, Mean (IDE [1]; judged as IC50 <100 uM?): 48.5%
percent decrease in insulin detected by ELISA, Replicate 1 (IDE [2]; [5]): 77.7%
percent decrease in insulin detected by ELISA, Replicate 2 (IDE [2]; [5]): 71.2%
percent decrease in insulin detected by ELISA, Replicate 3 (IDE [2]; [5]): 96.7%
percent decrease in insulin detected by ELISA, Replicate 4 (IDE [2]; [5]): 88.5%
percent decrease in insulin detected by ELISA, Mean (IDE [2]; peptide at 10 uM, insulin 100 nM, normalized to DMSO-only and no-enzyme controls, N=4): 83.5%
Percent Activity (normalized initial velocity of FRET1 hydrolysis) (IDE [3]; 0-hr incubation, Cmpd 0.12207 uM, individual runs): 96.4522% and 96.759% and 99.5993%
Percent Activity (normalized initial velocity of FRET1 hydrolysis) (IDE [3]; 0-hr incubation, Cmpd 0.488281 uM, individual runs): 102.379% and 100.264% and 105.198%
Percent Activity (normalized initial velocity of FRET1 hydrolysis) (IDE [3]; 0-hr incubation, Cmpd 1.95312 uM, individual runs): 104.101% and 99.4736% and 108.303%
Percent Activity (normalized initial velocity of FRET1 hydrolysis) (IDE [3]; 0-hr incubation, Cmpd 7.8125 uM, individual runs): 98.6262% and 96.0429% and 106.212%
Percent Activity (normalized initial velocity of FRET1 hydrolysis) (IDE [3]; 0-hr incubation, Cmpd 31.25 uM, individual runs): 88.0717% and 83.2988% and 94.9104%
Percent Activity (normalized initial velocity of FRET1 hydrolysis) (IDE [3]; 0-hr incubation, Cmpd 125 uM, individual runs): 50.9238% and 50.5662% and 58.9795%
Percent Activity (normalized initial velocity of FRET1 hydrolysis) (IDE [3]; 0-hr incubation, Cmpd 500 uM, individual runs): 18.0015% and 16.3891% and 26.5742%
Percent Activity (normalized initial velocity of FRET1 hydrolysis) (IDE [3]; [6]): 81.980% and 88.388%
Percent Activity (normalized initial velocity of FRET1 hydrolysis) (IDE [3]; [7]): 82.055% and 87.340%
Percent Activity (normalized initial velocity of FRET1 hydrolysis) (IDE [3]; [8]): 95.585% and 92.840%
Percent Activity (normalized initial velocity of FRET1 hydrolysis) (IDE [3]; [9]): 94.853% and 93.557%
Percent Activity (normalized initial velocity of FRET1 hydrolysis) (IDE [3]; [10]): 102.800% and 95.281%
Percent Activity (normalized initial velocity of FRET1 hydrolysis) (IDE [3]; [11]): 90.299% and 99.861%
Percent Activity (normalized initial velocity of FRET1 hydrolysis) (IDE [3]; [12]): 61.928% and 59.590%
Substance: LPWCTPHC [P12-3D]

IC50 (IDE [1]; read-out: IC50s, Mean): 208 µM
IC50 <500 uM? (IDE [1]): YES
remaining activity at 500 µM (IDE [1]; [4]): 12.6%
remaining activity at 500 µM (IDE [1]; judged as IC50 <100 uM?): 33.8%
Ki (IDE [1]; [13]): 139 ± 21 µM
IC50 (IDE [2]; from initial test at 10 uM using insulin (100 nM), read-out: IC50 (summary of results, listed in Table 1)): > 10 µM
Ki (IDE [2]): > 10 µM
Ki (IDE [3]; 0-hr incubation): 139 µM
Ki (IDE [3]; 4-hr incubation): 327 µM
remaining activity at 0.12207 µM (IDE [3]; [6]): 100%
remaining activity at 0.488281 µM (IDE [3]; [7]): 104%
remaining activity at 1.95312 µM (IDE [3]; [8]): 105%
remaining activity at 7.8125 µM (IDE [3]; [9]): 104%
remaining activity at 31.25 µM (IDE [3]; [10]): 78.2%
remaining activity at 125 µM (IDE [3]; [11]): 24.3%
remaining activity at 500 µM (IDE [3]; [12]): 2.79%
IC50 (IDE [3]; 0-hr incubation (immediately after combining enzyme and peptide), individual runs, read-out: IC50s): 150 µM and 254 µM and 220 µM
IC50 (IDE [3]; [14]): 482 µM and 500 µM
IC50 (IDE [3]; [15]): 491 µM
Substance: Ac-FRQWWQPS [P12-1C]

Ki (IDE [1]; Cheng-Prusoff, KM 10 uM, substrate concentration 5 uM, read-out: Ki values, Mean): 4.25 µM
IC50 (IDE [1]; individual runs, read-out: IC50s, Run 1-6): 6.41 µM and 2.96 µM and 9.75 µM
IC50 (IDE [1]; read-out: IC50s, Mean): 6.37 µM
IC50 <500 uM? (IDE [1]): YES
remaining activity at 500 µM (IDE [1]; judged as IC50 <100 uM?): 17.7%
Ki (IDE [1]; [13]): 4.2 ± 1.3 µM
IC50 <10 uM? (IDE [2]; initial test at 10 uM using insulin (100 nM)): YES
IC50 (IDE [2]; insulin ELISA assay, dose-response, Replicates 1-3, read-out: IC50s, individual replicates): 6.44 µM and 6.45 µM and 2.48 µM
IC50 (IDE [2]; insulin ELISA assay, dose-response, N=3, read-out: IC50s, Mean): 5.12 µM
Ki (IDE [2]): 2.6 ± 0.7 µM
Ki (IDE [3]; 4-hr incubation): 43.5 µM
remaining activity at 0.12207 µM (IDE [3]; [6]): 78.9%
remaining activity at 0.488281 µM (IDE [3]; [7]): 81.8%
remaining activity at 1.95312 µM (IDE [3]; [8]): 85.3%
remaining activity at 7.8125 µM (IDE [3]; [9]): 83.2%
remaining activity at 31.25 µM (IDE [3]; [10]): 35.7%
remaining activity at 125 µM (IDE [3]; [11]): 51.3%
remaining activity at 500 µM (IDE [3]; [12]): 27.1%
IC50 (IDE [3]; [14]): 63.7 µM and 66.6 µM
IC50 (IDE [3]; [15]): 65.2 µM
Substance: WSPISGKFFQRF-NH2 [P12-4A]
